Laboratory results from patent EP0584797A2, “Novel cephalosporin compounds and processes for the preparation thereof” (LUCKY LTD., priority 1992, dated 1994).
≈ marks a conversion by molar mass, not a printed value.

What was measured:
Experiment in all cases: minimal inhibitory concentration, two-fold agar dilution
Format in all cases: cell-based
[1] = tested on: Pseudomonas aeruginosa ATCC 25619; details: ATCC25619, Muller-Hinton agar, 37°C, 20 hours, read-out: MIC values against the standard strains
Description: (§1) These MIC values were taken by employing a two-fold dilution method: that is, two-fold serial dilutions of each of the test compounds were made and dispersed in a Muller-Hinton agar medium; 2µl of the standard test strain which had the 10⁷ CFU(Colony Forming Unit) per ml was inoculated on the medium; and these were incubated at 37°C for 20 hours.

[2] = tested on: Shigella sonnei ATCC 11060; details: ATCC11060, Muller-Hinton agar, 37°C, 20 hours, read-out: MIC values against the standard strains
Description: as §1

[3] = tested on: Staphylococcus aureus ATCC 6538p; details: ATCC6538P, Muller-Hinton agar, 37°C, 20 hours, read-out: MIC values against the standard strains
Description: as §1

[4] = tested on: Pseudomonas aeruginosa ATCC 27853; details: ATCC27853, Muller-Hinton agar, 37°C, 20 hours, read-out: MIC values against the standard strains
Description: as §1

[5] = tested on: Staphylococcus aureus ATCC 10537; details: ATCC10537, Muller-Hinton agar, 37°C, 20 hours, read-out: MIC values against the standard strains
Description: as §1

[6] = tested on: Micrococcus luteus ATCC 9341; details: ATCC9341, Muller-Hinton agar, 37°C, 20 hours, read-out: MIC values against the standard strains
Description: as §1

[7] = tested on: Enterobacter cloacae ATCC 27508; details: ATCC27508, Muller-Hinton agar, 37°C, 20 hours, read-out: MIC values against the standard strains
Description: as §1

[8] = tested on: Streptococcus faecalis ATCC 29212; details: Enterococcus faecalis, ATCC29212; Muller-Hinton agar; 37°C; 20 hours; read-out: MIC values against the standard strains
Description: as §1

[9] = tested on: Serratia marcescens ATCC 27117; details: ATCC27117, Muller-Hinton agar, 37°C, 20 hours, read-out: MIC values against the standard strains
Description: as §1

[10] = tested on: Escherichia coli ATCC 25922; details: ATCC25922, Muller-Hinton agar, 37°C, 20 hours, read-out: MIC values against the standard strains
Description: as §1

[11] = tested on: Klebsiella pneumoniae ATCC 10031; details: ATCC10031, Muller-Hinton agar, 37°C, 20 hours, read-out: MIC values against the standard strains
Description: as §1

[12] = tested on: Escherichia coli ATCC 10536; details: ATCC10536, Muller-Hinton agar, 37°C, 20 hours, read-out: MIC values against the standard strains
Description: as §1

[13] = tested on: Providencia rettgeri ATCC 9250; details: ATCC9250, Muller-Hinton agar, 37°C, 20 hours, read-out: MIC values against the standard strains
Description: as §1

[14] = tested on: Acinetobacter calcoaceticus ATCC 15473; details: ATCC15473, Muller-Hinton agar, 37°C, 20 hours, read-out: MIC values against the standard strains
Description: as §1

[15] = tested on: Staphylococcus epidermidis ATCC 12228; details: ATCC12228, Muller-Hinton agar, 37°C, 20 hours, read-out: MIC values against the standard strains
Description: as §1

[16] = tested on: Bacillus megaterium ATCC 9885; details: Priestia megaterium, ATCC9885; Muller-Hinton agar; 37°C; 20 hours; read-out: MIC values against the standard strains
Description: as §1

[17] = tested on: Bacillus cereus ATCC 11778; details: ATCC11778, Muller-Hinton agar, 37°C, 20 hours, read-out: MIC values against the standard strains
Description: as §1

[18] = tested on: Citrobacter freundii ATCC 8090; details: ATCC8090, Muller-Hinton agar, 37°C, 20 hours, read-out: MIC values against the standard strains
Description: as §1

[19] = tested on: Morganella morganii ATCC 8076h; details: ATCC8076H, Muller-Hinton agar, 37°C, 20 hours, read-out: MIC values against the standard strains
Description: as §1

[20] = tested on: Pseudomonas aeruginosa ATCC 10145; details: ATCC10145, Muller-Hinton agar, 37°C, 20 hours, read-out: MIC values against the standard strains
Description: as §1

[21] = tested on: Salmonella typhimurium ATCC 14028; details: Salmonella enterica; Muller-Hinton agar; 37°C; 20 hours; read-out: MIC values against the standard strains
Description: as §1

[22] = tested on: Enterobacter aerogenes ATCC 29751; details: Klebsiella aerogenes, ATCC29751; Muller-Hinton agar; 37°C; 20 hours; read-out: MIC values against the standard strains
Description: as §1

[23] = tested on: Proteus vulgaris ATCC 6059; details: ATCC6059, Muller-Hinton agar, 37°C, 20 hours, read-out: MIC values against the standard strains
Description: as §1

[24] = tested on: Shigella flexneri ATCC 11836; details: ATCC11836, Muller-Hinton agar, 37°C, 20 hours, read-out: MIC values against the standard strains
Description: as §1

[25] = tested on: Proteus mirabilis ATCC 25933; details: ATCC25933, Muller-Hinton agar, 37°C, 20 hours, read-out: MIC values against the standard strains
Description: as §1

Compound	MIC [1] [mg/L]	MIC [2] [mg/L]	MIC [3] [mg/L]	MIC [4] [mg/L]	MIC [5] [mg/L]	MIC [6] [mg/L]	MIC [7] [mg/L]	MIC [8] [mg/L]	MIC [9] [mg/L]	MIC [10] [mg/L]	MIC [11] [mg/L]	MIC [12] [mg/L]	MIC [13] [mg/L]	MIC [14] [mg/L]	MIC [15] [mg/L]	MIC [16] [mg/L]	MIC [17] [mg/L]	MIC [18] [mg/L]	MIC [19] [mg/L]	MIC [20] [mg/L]	further results
Cc1c[n+](N)c(SCC2=C(C(=O)[O-])N3C(=O)[C@@H](NC(=O)/C(=N\OC(C)(C)C(=O)O)c4csc(N)n4)[C@H]3SC2)nc1N [Example 57]	1 (≈ 1.6 µM)	0.063 (≈ 0.101 µM)	8 (≈ 12.8 µM)	2 (≈ 3.21 µM)	2 (≈ 3.21 µM)	0.25 (≈ 0.401 µM)	≤ 0.008	> 128	0.13 (≈ 0.208 µM)	0.063 (≈ 0.101 µM)	0.063 (≈ 0.101 µM)	0.063 (≈ 0.101 µM)	≤ 0.008	16 (≈ 25.7 µM)	2 (≈ 3.21 µM)	0.25 (≈ 0.401 µM)	128 (≈ 205 µM)	0.031 (≈ 0.0497 µM)	≤ 0.008	2 (≈ 3.21 µM)	MIC [21]: 0.13 mg/L (≈ 0.208 µM); MIC [22]: 0.5 mg/L (≈ 0.802 µM); MIC [23]: 0.031 mg/L (≈ 0.0497 µM); MIC [24]: 0.063 mg/L (≈ 0.101 µM); MIC [25]: 0.031 mg/L (≈ 0.0497 µM)
CCO/N=C(\C(=O)N[C@@H]1C(=O)N2C(C(=O)[O-])=C(CSc3nc(N)c(N)c[n+]3N)CS[C@H]12)c1csc(N)n1 [Example 46, 7-[(Z)-2-(2-aminothiazol-4-yl)-2-(ethoxyimino)acetamido]-3-(1,4,5-triaminopyrimidinium-2-yl)thiomethyl-3-cephem-4-carboxylate]	0.5 (≈ 0.882 µM)	0.031 (≈ 0.0547 µM)	0.25 (≈ 0.441 µM)	4 (≈ 7.06 µM)	0.13 (≈ 0.229 µM)	0.031 (≈ 0.0547 µM)	≤ 0.008	8 (≈ 14.1 µM)	0.25 (≈ 0.441 µM)	0.031 (≈ 0.0547 µM)	0.063 (≈ 0.111 µM)	0.031 (≈ 0.0547 µM)	0.031 (≈ 0.0547 µM)	4 (≈ 7.06 µM)	0.031 (≈ 0.0547 µM)	0.063 (≈ 0.111 µM)	64 (≈ 113 µM)	0.063 (≈ 0.111 µM)	0.016 (≈ 0.0282 µM)	8 (≈ 14.1 µM)	MIC [21]: 0.25 mg/L (≈ 0.441 µM); MIC [22]: 1 mg/L (≈ 1.76 µM); MIC [23]: 0.25 mg/L (≈ 0.441 µM); MIC [24]: 0.031 mg/L (≈ 0.0547 µM); MIC [25]: 0.25 mg/L (≈ 0.441 µM)
C[n+]1c(-c2ccccc2)cc(N)nc1SCC1=C(C(=O)[O-])N2C(=O)[C@@H](NC(=O)/C(=N\OC(C)(C)C(=O)O)c3csc(N)n3)[C@H]2SC1 [Example 20, 7-[(Z)-2-(2-aminothiazol-4-yl)-2-(carboxyprop-2-oxyimino)acetamido]-3-(4-amino-6-phenyl-1-methylpyrimidinium-2-yl)thiomethyl-3-cephem-4-carboxylate]	2 (≈ 2.92 µM)	0.25 (≈ 0.365 µM)	4 (≈ 5.84 µM)	4 (≈ 5.84 µM)	2 (≈ 2.92 µM)	0.25 (≈ 0.365 µM)	0.13 (≈ 0.19 µM)	> 128	2 (≈ 2.92 µM)	0.5 (≈ 0.73 µM)	0.13 (≈ 0.19 µM)	0.25 (≈ 0.365 µM)	≤ 0.008	64 (≈ 93.5 µM)	1 (≈ 1.46 µM)	0.13 (≈ 0.19 µM)	64 (≈ 93.5 µM)	0.5 (≈ 0.73 µM)	≤ 0.008	16 (≈ 23.4 µM)	MIC [21]: 1 mg/L (≈ 1.46 µM); MIC [22]: 4 mg/L (≈ 5.84 µM); MIC [23]: 0.5 mg/L (≈ 0.73 µM); MIC [24]: 0.13 mg/L (≈ 0.19 µM); MIC [25]: 0.25 mg/L (≈ 0.365 µM)
